Data as given in US9642889B2, “Macrocyclic inhibitors of Flaviviridae viruses” (Selcia Limited, priority 2012, dated 2017).

Legend:
[1] = biological target: cyclophilin A (Homo sapiens, UniProt P62937); assay: Cyclophilin A TR-FRET competitive binding assay; settings: competition with CsA-Cy5 for His-tagged CypA, two-hour incubation
Description: Cyclophilin A TR-FRET Competitive Binding Assay
Inhibitor potency was measured using a competitive binding assay with a time-resolved fluorescence resonance energy transfer (TR-FRET) readout. […] An IC50 value was calculated using a four-parameter logistic fit.

[2] = tested on: Huh-7 HCV replicon cells (1b replicon); assay: anti-HCV activity in Huh-7 cell line harboring a HCV replicon (luciferase readout); assay type: cell-based; settings: Hepatitis C virus; for EC50: Huh-7, 72 h, inhibition of viral replication, Huh-7 HCV replicon cells, 3 days, read-out: EC50; for inhibition at 1 µM: Huh-7, read-out: Replicon 1b % inhibition at 1 μM, 1b replicon, 1 μM compound

cyclophilin A, sequence (P62937 whole entry, species assumed): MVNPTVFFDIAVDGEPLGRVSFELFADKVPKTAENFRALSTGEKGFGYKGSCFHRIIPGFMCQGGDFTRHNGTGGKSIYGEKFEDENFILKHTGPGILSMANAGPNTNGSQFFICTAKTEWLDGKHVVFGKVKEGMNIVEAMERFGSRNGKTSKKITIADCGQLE

| SMILES | IC50 [1] | EC50 [2] | inhibition at 1 µM [2] |
| --- | --- | --- | --- |
| CCC[C@@H]1C/C=C/c2cc3cc(ccc3cn2)[C@@H](C)NC(=O)[C@@H]2CCCN(N2)C(=O)[C@H](C)NC(=O)[C@H](C(C)C)OC1=O [Compound 4] | < 100 nM | < 1000 nM | 100% |
| CC1/C=C/c2cc3cc(ccc3cn2)[C@@H](C)NC(=O)[C@@H]2CCCN(N2)C(=O)[C@H](C)NC(=O)[C@H](C(C)C)OC1=O (stereo partly drawn) [Compound 5] | < 100 nM | < 1000 nM | 93% |
| CC(C)[C@@H]1OC(=O)CCc2ccc(cc2)-c2cccc(c2)[C@@H](C)NC(=O)[C@@H]2CCCN(N2)C(=O)[C@H](C)NC1=O [Compound 6] | < 100 nM | < 1000 nM | 94% |
| CC(C)[C@@H]1OC(=O)[C@H](C)[C@H](O)CC/C=C/c2cccc(c2)[C@@H](C)NC(=O)[C@@H]2CCCN(N2)C(=O)[C@H](C)NC1=O [Compound 7, (E)-(2R,5S,11S,14S,17R,18R)-18-Hydroxy-14-isopropyl-2,11,17-trimethyl-15-oxa-3,9,12,28-tetraaza-tricyclo[21.3.1.1*5,9*]octacosa-1(26),21,23(27),24-tetraene 4,10,13,16-tetraone] | < 100 nM | < 1000 nM | 94% |
| CCC[C@@H]1CCCc2cc3cc(ccc3cn2)[C@@H](C)NC(=O)[C@@H]2CCCN(N2)C(=O)[C@H](C)NC(=O)[C@H](C(C)C)OC1=O [Compound 9] | < 100 nM | < 1000 nM | 100% |
| CC(C)[C@@H]1OC(=O)[C@H](C)[C@H](O)CCCCc2cccc(c2)[C@@H](C)NC(=O)[C@@H]2CCCN(N2)C(=O)[C@H](C)NC1=O [Compound 10, (2R,5S,11S,14S,17R,18R)-18-Hydroxy-14-isopropyl-2,11,17-trimethyl-15-oxa-3,9,12,28-tetraaza-tricyclo[21.3.1.1*5,9*]octacosa-1(26),23(27),24-triene-4,10,13,16-tetraone] | < 100 nM | < 1000 nM | 92% |
| CC1/C=C/c2cc3cc(ccc3cn2)[C@@H](C)NC(=O)[C@@H]2CCCN(N2)C(=O)[C@H](C)NC(=O)[C@H](C(C)C)OC(=O)C1C (stereo partly drawn) [Compound 11] | < 100 nM | < 1000 nM | 96% |
| CC(C)[C@@H]1OC(=O)C(C)(C)C/C=C/c2cc3cc(ccc3cn2)[C@@H](C)NC(=O)[C@@H]2CCCN(N2)C(=O)[C@H](C)NC1=O [Compound 12] | < 100 nM | < 1000 nM | 100% |
| CC(C)[C@@H]1NCCC/C=C/c2cc3cc(ccc3cn2)[C@@H](C)OC(=O)[C@@H]2CCCN(N2)C(=O)[C@H](C)NC1=O [Compound 20] | 101 to 1000 nM | < 1000 nM | 88% |
| CC(C)[C@@H]1NS(=O)(=O)C/C=C/c2cc3cc(ccc3cn2)[C@@H](C)OC(=O)[C@@H]2CCCN(N2)C(=O)[C@H](C)NC1=O [Compound 21] | 101 to 1000 nM | < 1000 nM | 71% |
| CC(C)[C@@H]1OCCC/C=C/c2cc3cc(ccc3cn2)[C@@H](C)OC(=O)[C@@H]2CCCN(N2)C(=O)[C@H](C)NC1=O [Compound 23] | < 100 nM | < 1000 nM | 97% |
| CC(C)[C@@H]1OCCCCCc2cc3cc(ccc3cn2)[C@@H](C)OC(=O)[C@@H]2CCCN(N2)C(=O)[C@H](C)NC1=O [Compound 24] | < 100 nM | < 1000 nM | 83% |
| CC(C)[C@@H]1NCC(C)(C)/C=C/c2ccc3ccc(nc3c2)[C@@H](C)OC(=O)[C@@H]2CCCN(N2)C(=O)[C@H](C)NC1=O [Compound 25] | < 100 nM | < 1000 nM | 98% |
| CC(C)[C@H]1C(=O)N[C@@H](C)C(=O)N2CCC[C@H](N2)C(=O)O[C@H](C)c2ccc3ccc(cc3n2)/C=C/C(C)(C)CN1C [Compound 26] | 101 to 1000 nM | < 1000 nM | 68% |
| CC(C)[C@@H]1OC(=O)[C@@](C)(CO)/C=C/c2ccc3ccc(nc3c2)[C@@H](C)NC(=O)[C@@H]2CCCN(N2)C(=O)[C@H](C)NC1=O [Compound 29] | < 100 nM | < 1000 nM | 99% |
| CC(C)[C@@H]1OC(=O)[C@@](C)(CO)CCc2ccc3ccc(nc3c2)[C@@H](C)NC(=O)[C@@H]2CCCN(N2)C(=O)[C@H](C)NC1=O [Compound 30] | < 100 nM | < 1000 nM | 84% |
| CC(C)[C@@H]1N[C@H](C(F)(F)F)C(C)(C)/C=C/c2ccc3ccc(nc3c2)[C@@H](C)OC(=O)[C@@H]2CCCN(N2)C(=O)[C@H](C)NC1=O [Compound 31] | < 100 nM | < 1000 nM | 88% |
| CC(C)[C@@H]1N[C@@H](C(F)(F)F)C(C)(C)/C=C/c2ccc3ccc(nc3c2)[C@@H](C)OC(=O)[C@@H]2CCCN(N2)C(=O)[C@H](C)NC1=O [Compound 32] | 101 to 1000 nM | 1100 to 10000 nM | 56% |
| CC(C)[C@@H]1OC(=O)C(C)(C)/C=C/c2ccc3ccc(nc3c2)[C@@H](C)N(C)C(=O)[C@@H]2CCCN(N2)C(=O)[C@H](CO)NC1=O [Compound 41] | < 100 nM | < 1000 nM | 98% |

| SMILES | IC50 [1] | EC50 [2] | inhibition at 1 µM [2] |
| --- | --- | --- | --- |
| CC(C)[C@@H]1OC(=O)[C@]2(/C=C/c3ccc4ccc(nc4c3)[C@@H](C)N(C)C(=O)[C@@H]3CCCN(N3)C(=O)[C@H](C)NC1=O)CC[C@H](O)CC2 [Compound 42] | < 100 nM | < 1000 nM | 96% |
| CC(C)[C@@H]1OC(=O)C(C)(C)/C=C/c2ccc3ccc(nc3c2)[C@@H](C)N(C)C(=O)[C@@H]2CCCN(N2)C(=O)[C@H](C)NC1=O [Compound 47] | < 100 nM | < 1000 nM | 100% |
| C[C@@H]1NC(=O)[C@H](C2CCC2)OC(=O)C(C)(C)/C=C/c2ccc3ccc(nc3c2)[C@@H](C)NC(=O)[C@@H]2CCCN(N2)C1=O [Compound 52] | < 100 nM | < 1000 nM | 100% |
| C[C@@H]1NC(=O)[C@H](C2CC2)OC(=O)C2(/C=C/c3ccc4ccc(nc4c3)[C@@H](C)NC(=O)[C@@H]3CCCN(N3)C1=O)COCOC2 [Compound 53] | < 100 nM | < 1000 nM | 99% |
| CO[C@@H](C)[C@@H]1OC(=O)C(C)(C)/C=C/c2ccc3ccc(nc3c2)[C@@H](C)NC(=O)[C@@H]2CCCN(N2)C(=O)[C@H](C)NC1=O [Compound 54] | 101 to 1000 nM | < 1000 nM | 77% |
| CC(C)[C@@H]1OC(=O)[C@@](C)(COC(F)F)/C=C/c2ccc3ccc(nc3c2)[C@@H](C)NC(=O)[C@@H]2CCCN(N2)C(=O)[C@H](C)NC1=O [Compound 55] | < 100 nM | < 1000 nM | 100% |
| CC(C)[C@@H]1OC(=O)[C@@](C)(COC(F)(F)F)/C=C/c2ccc3ccc(nc3c2)[C@@H](C)NC(=O)[C@@H]2CCCN(N2)C(=O)[C@H](C)NC1=O [Compound 56] | < 100 nM | < 1000 nM | 99% |
| CO[C@H](C)[C@@H]1OC(=O)C(C)(C)/C=C/c2ccc3ccc(nc3c2)[C@@H](C)NC(=O)[C@@H]2CCCN(N2)C(=O)[C@H](C)NC1=O [Compound 60] | < 100 nM | < 1000 nM | 96% |
| C[C@@H]1NC(=O)[C@H](C)OC(=O)C(C)(C)/C=C/c2ccc3ccc(nc3c2)[C@@H](C)NC(=O)[C@@H]2CCCN(N2)C1=O [Compound 61] | 101 to 1000 nM | 1100 to 10000 nM | 46% |
| C[C@@H]1NC(=O)[C@H](CC(F)F)OC(=O)C(C)(C)/C=C/c2ccc3ccc(nc3c2)[C@@H](C)NC(=O)[C@@H]2CCCN(N2)C1=O [Compound 62] | < 100 nM | < 1000 nM | 84% |
| C[C@@H]1NC(=O)[C@H](C2CCCC2)OC(=O)C2(/C=C/c3ccc4ccc(nc4c3)[C@@H](C)NC(=O)[C@@H]3CCCN(N3)C1=O)COCOC2 [Compound 63] | < 100 nM | < 1000 nM | 100% |
| CC[C@H](C)[C@@H]1OC(=O)C2(/C=C/c3ccc4ccc(nc4c3)[C@@H](C)NC(=O)[C@@H]3CCCN(N3)C(=O)[C@H](C)NC1=O)COCOC2 [Compound 65] | < 100 nM | < 1000 nM | 99% |
| C[C@@H]1NC(=O)[C@H](C2CC2)OC(=O)C2(/C=C/c3ccc4ccc(nc4c3)[C@@H](C)NC(=O)[C@@H]3CCCN(N3)C1=O)CCC(O)CC2 (stereo partly drawn) [Compound 66] | < 100 nM | < 1000 nM | 97% |
| C[C@@H]1NC(=O)[C@H](C2CCOCC2)OC(=O)C(C)(C)/C=C/c2ccc3ccc(nc3c2)[C@@H](C)NC(=O)[C@@H]2CCCN(N2)C1=O [Compound 67] | 101 to 1000 nM | < 1000 nM | 67% |
| CC(F)[C@@H]1OC(=O)C(C)(C)/C=C/c2ccc3ccc(nc3c2)[C@@H](C)NC(=O)[C@@H]2CCCN(N2)C(=O)[C@H](C)NC1=O (stereo partly drawn) [Compound 68] | < 100 nM | < 1000 nM | 93% |
| C[C@@H]1NC(=O)[C@H](C(C)(C)C)OC(=O)C(C)(C)/C=C/c2ccc3ccc(nc3c2)[C@@H](C)NC(=O)[C@@H]2CCCN(N2)C1=O [Compound 70] | 1000 to 10000 nM | < 1000 nM | 57% |
| CC([C@@H]1OC(=O)C(C)(C)/C=C/c2ccc3ccc(nc3c2)[C@@H](C)NC(=O)[C@@H]2CCCN(N2)C(=O)[C@H](C)NC1=O)C(F)(F)F (stereo partly drawn) [Compound 71] | < 100 nM | < 1000 nM | 96% |
| C[C@@H]1NC(=O)[C@H](C(C)(C)F)OC(=O)C2(/C=C/c3ccc4ccc(nc4c3)[C@@H](C)NC(=O)[C@@H]3CCCN(N3)C1=O)COCOC2 [Compound 72] | 1000 to 10000 nM | 1100 to 10000 nM | -6% |
| CC(C)[C@@H]1OC(=O)C2(/C=C/c3ccc4ccc(nc4c3)[C@@H](C)NC(=O)[C@@H]3CCCN(N3)C(=O)[C@H](C)NC1=O)CCOC2 (stereo partly drawn) [Compound 73] | < 100 nM | < 1000 nM | 97% |
